24 compounds from patent US10221197B2, “Phosphatidylinositol 3-kinase inhibitors” (Gilead Sciences, Inc., priority 2014, dated 2019) can be followed below.

The structures appear in SMILES notation. Where two headings read alike, the source gives them in different places. Bounds are passed on as bounds.

Common to all, as to format: biochemical
One assay concerns the target PI3Kβ (Homo sapiens (Human), UniProt P42338). The assay is described as follows: TR-FRET enzymatic assay of PI3K isoforms (PI3Kβ). Conditions: for IC50: TR-FRET, 2×Km ATP, 2 μM PIP2, incubated for 30 minutes at 25° C., read-out: β IC50; for PI3Kγ/PI3Kβ ratio: ratio of IC50 values, selectivity for PI3Kβ over PI3Kγ. Here is the method:
(§1) The compounds of formula (I) were characterized for their enzymatic activity against the PI3K isoforms. Certain compounds of the present application, including certain compounds of formula (II) and (III) were also characterized for their enzymatic activity against PI3K isoforms. The activities were measured using a time-resolved fluorescence resonance energy transfer (TR-FRET) assay.

The target in a further assay is PI3Kδ (Homo sapiens (Human), UniProt O00329). The assay is described as follows: TR-FRET enzymatic assay of PI3K isoforms (PI3Kδ). The following applies: 2×Km ATP, 2 μM PIP2, incubated for 30 minutes at 25° C., read-out: δ IC50. On the procedure: as §1
PI3Kδ, sequence (O00329 whole entry, canonical isoform): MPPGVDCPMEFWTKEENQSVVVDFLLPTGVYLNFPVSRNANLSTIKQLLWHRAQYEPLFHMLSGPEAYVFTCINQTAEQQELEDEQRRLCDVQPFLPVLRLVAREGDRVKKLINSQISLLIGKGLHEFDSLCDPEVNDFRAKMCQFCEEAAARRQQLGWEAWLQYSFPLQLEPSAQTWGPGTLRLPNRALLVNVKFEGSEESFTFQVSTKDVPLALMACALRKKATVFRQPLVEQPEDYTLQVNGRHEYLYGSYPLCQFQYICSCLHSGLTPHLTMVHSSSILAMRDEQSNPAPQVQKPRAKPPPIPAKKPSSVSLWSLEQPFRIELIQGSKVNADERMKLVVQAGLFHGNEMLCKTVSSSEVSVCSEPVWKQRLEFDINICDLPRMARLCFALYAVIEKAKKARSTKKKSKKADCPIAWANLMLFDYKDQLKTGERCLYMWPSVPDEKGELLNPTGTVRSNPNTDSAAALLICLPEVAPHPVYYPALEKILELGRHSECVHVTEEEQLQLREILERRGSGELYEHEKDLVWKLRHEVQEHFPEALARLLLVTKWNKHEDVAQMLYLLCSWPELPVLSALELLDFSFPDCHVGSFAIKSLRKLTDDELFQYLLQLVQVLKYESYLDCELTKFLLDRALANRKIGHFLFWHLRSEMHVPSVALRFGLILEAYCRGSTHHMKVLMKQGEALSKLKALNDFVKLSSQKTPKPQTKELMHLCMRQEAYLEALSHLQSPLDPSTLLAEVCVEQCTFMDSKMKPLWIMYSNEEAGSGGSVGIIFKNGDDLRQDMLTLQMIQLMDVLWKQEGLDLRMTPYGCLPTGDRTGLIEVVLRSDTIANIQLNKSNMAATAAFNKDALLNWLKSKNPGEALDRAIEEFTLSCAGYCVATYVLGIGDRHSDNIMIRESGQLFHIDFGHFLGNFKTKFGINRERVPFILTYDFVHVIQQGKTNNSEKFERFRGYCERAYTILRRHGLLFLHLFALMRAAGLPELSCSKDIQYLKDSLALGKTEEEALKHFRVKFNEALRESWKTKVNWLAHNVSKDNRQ
PI3Kδ, sequence (P27986 whole entry partner, canonical isoform): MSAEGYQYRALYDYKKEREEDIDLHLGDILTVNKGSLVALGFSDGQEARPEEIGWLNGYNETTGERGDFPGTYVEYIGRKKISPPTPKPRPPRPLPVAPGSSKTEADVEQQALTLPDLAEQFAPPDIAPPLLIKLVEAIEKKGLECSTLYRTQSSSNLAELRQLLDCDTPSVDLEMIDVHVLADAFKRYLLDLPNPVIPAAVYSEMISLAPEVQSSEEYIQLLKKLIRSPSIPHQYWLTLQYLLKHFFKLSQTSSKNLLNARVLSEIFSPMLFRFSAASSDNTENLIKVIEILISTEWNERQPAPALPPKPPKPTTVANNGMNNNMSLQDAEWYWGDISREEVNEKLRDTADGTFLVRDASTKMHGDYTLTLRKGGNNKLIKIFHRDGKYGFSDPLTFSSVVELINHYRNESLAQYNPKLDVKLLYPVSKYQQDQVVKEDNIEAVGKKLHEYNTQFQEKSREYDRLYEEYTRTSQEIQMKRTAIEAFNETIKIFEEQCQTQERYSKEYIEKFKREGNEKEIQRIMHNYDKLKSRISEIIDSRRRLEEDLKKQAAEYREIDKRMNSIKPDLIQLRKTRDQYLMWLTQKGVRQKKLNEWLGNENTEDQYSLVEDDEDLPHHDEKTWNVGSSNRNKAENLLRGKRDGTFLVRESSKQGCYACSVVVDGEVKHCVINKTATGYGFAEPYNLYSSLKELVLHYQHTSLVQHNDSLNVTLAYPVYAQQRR
On the technique in general: In TR-FRET formats the signal depends on donor and acceptor labels being close together.

The next assay addresses PI3Kγ (Homo sapiens (Human), UniProt P48736). The assay is described as follows: TR-FRET enzymatic assay of PI3K isoforms (PI3Kγ). The following applies: read-out: γ IC50. Here is the method:
as §1

The mark [1] stands for this setting: TR-FRET, 2×Km ATP, 2 μM PIP2, PI3Kγ at 2 nM, incubated for 30 minutes at 25° C.

PI3Kγ, sequence (P48736 whole entry, canonical isoform): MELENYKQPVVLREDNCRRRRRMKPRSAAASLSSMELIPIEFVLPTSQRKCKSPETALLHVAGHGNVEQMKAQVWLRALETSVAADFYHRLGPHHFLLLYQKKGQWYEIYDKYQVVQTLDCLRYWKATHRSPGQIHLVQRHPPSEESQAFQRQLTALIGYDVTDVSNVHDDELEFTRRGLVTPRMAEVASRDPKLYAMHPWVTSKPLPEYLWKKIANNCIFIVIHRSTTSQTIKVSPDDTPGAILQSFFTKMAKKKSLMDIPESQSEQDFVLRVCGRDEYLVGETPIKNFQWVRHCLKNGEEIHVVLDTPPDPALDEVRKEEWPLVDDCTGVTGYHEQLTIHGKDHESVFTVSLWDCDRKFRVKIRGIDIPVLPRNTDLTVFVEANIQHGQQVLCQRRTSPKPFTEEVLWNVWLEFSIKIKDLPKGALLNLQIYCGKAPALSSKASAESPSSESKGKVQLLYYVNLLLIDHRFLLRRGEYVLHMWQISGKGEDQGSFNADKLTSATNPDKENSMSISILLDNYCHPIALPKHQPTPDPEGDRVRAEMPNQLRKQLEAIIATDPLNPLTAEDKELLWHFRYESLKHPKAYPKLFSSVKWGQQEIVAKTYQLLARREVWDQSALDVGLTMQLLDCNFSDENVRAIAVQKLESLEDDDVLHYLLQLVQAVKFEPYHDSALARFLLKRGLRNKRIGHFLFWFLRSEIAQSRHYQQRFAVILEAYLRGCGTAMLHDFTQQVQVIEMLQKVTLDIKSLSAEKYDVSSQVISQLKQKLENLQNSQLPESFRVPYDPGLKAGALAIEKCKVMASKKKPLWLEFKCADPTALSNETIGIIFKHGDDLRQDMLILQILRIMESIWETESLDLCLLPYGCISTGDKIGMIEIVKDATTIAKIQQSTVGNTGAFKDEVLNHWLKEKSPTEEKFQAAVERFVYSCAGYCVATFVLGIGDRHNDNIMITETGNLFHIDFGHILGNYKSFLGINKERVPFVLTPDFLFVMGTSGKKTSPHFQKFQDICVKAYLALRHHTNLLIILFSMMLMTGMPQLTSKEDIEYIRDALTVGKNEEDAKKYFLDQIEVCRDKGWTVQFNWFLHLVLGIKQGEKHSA
PI3Kγ, sequence (Q8WYR1 whole entry partner, canonical isoform): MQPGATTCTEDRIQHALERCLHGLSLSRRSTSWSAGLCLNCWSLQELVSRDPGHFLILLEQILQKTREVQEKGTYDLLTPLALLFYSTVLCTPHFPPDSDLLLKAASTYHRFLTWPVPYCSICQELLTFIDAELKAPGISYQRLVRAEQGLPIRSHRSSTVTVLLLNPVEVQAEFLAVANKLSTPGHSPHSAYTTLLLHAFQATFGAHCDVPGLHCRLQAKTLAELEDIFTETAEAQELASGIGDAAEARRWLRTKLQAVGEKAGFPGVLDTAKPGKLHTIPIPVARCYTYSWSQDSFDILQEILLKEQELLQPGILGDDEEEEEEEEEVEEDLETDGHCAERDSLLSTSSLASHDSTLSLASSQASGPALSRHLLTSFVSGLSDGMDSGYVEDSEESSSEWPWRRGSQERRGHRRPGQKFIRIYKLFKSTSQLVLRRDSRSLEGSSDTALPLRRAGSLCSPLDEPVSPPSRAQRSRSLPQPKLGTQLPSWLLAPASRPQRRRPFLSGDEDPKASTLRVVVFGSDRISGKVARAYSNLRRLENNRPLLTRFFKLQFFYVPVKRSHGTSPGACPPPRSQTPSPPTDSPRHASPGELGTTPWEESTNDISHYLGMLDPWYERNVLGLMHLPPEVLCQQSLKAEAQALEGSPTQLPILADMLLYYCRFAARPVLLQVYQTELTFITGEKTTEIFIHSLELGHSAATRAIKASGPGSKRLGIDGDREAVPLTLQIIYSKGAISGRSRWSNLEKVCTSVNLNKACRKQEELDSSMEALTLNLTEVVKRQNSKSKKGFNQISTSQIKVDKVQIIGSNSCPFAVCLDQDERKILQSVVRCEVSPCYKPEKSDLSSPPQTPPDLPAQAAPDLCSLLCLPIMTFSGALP
PI3Kβ, sequence (P42338 whole entry, canonical isoform): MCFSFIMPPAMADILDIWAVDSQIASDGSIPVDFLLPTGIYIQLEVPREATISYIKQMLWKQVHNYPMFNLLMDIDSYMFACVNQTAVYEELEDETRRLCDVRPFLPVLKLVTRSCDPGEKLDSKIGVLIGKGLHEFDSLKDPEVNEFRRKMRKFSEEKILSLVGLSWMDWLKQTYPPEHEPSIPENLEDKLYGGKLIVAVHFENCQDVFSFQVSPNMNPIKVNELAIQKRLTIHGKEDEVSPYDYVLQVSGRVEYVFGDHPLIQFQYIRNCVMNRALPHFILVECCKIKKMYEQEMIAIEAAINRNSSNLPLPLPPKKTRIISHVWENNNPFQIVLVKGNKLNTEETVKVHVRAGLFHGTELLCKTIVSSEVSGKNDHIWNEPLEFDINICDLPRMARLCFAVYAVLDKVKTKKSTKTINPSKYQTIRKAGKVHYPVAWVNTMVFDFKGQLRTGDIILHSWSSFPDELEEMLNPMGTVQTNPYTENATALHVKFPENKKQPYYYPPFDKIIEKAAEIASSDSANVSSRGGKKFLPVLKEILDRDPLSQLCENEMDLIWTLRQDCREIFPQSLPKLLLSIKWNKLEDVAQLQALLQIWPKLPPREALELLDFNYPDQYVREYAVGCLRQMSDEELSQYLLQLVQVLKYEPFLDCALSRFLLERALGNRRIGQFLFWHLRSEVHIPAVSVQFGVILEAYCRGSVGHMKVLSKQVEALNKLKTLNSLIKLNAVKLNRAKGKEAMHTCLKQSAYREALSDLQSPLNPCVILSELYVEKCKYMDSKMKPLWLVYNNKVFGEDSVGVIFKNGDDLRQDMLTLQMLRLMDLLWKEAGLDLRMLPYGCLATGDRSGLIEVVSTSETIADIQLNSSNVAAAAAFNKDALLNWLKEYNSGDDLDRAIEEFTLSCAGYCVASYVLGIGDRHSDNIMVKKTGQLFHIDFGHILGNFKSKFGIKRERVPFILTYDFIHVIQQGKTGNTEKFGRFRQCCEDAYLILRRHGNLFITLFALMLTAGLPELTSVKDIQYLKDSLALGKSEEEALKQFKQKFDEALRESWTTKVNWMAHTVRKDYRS
PI3Kβ, sequence (P27986 whole entry partner, canonical isoform): as the sequence (P27986 whole entry partner, canonical isoform) above

In the case of `CCNC(=O)Nc1ccc(Cl)c(-n2c([C@H](C)Nc3ncnc(N)c3C#N)nc3cccc(Cl)c3c2=O)c1` (atropisomer, axis not shown) [Compound 58, (S)-1-(3-(2-(1-((6-amino-5-cyanopyrimidin-4-yl)amino)ethyl)-5-chloro-4-oxoquinazolin-3(4H)-yl)-4-chlorophenyl)-3-ethylurea], the IC50 at PI3Kβ turned out to be 1300 nM; at PI3Kδ it was 24 nM.
For `CCNC(=O)Nc1ccc(Cl)c(-n2c([C@H](C)Nc3ncnc(N)c3C#N)nc3cccc(Cl)c3c2=O)c1` (atropisomer, axis not shown) [Compound 59, (S)-1-(3-(2-(1-((6-amino-5-cyanopyrimidin-4-yl)amino)ethyl)-5-chloro-4-oxoquinazolin-3(4H)-yl)-4-chlorophenyl)-3-ethylurea], the half-maximal inhibitory concentration (IC50) was 610 nM on PI3Kβ, 56 nM on PI3Kδ and 2300 nM at PI3Kγ (setting [1]).
In the case of `CCNC(=O)Nc1ccc(C)c(-n2c([C@H](C)Nc3ncnc(N)c3C#N)nc3cccc(Cl)c3c2=O)c1` (atropisomer, axis not shown) [Compound 60, (S)-1-(3-(2-(1-((6-amino-5-cyanopyrimidin-4-yl)amino)ethyl)-5-chloro-4-oxoquinazolin-3(4H)-yl)-4-methylphenyl)-3-ethylurea], the figures for the half-inhibitory concentration (IC50) on PI3Kβ, at PI3Kδ and on PI3Kγ (setting [1]) were 210 nM, 4 nM and 210 nM, respectively.
On to `CCNC(=O)Nc1ccc(C)c(-n2c([C@H](C)Nc3ncnc(N)c3C#N)nc3cccc(Cl)c3c2=O)c1` (atropisomer, axis not shown) [Compound 61, (S)-1-(3-(2-(1-((6-amino-5-cyanopyrimidin-4-yl)amino)ethyl)-5-chloro-4-oxoquinazolin-3(4H)-yl)-4-methylphenyl)-3-ethylurea], for which the 50% inhibitory concentration (IC50) at PI3Kβ was determined as 1130 nM; on PI3Kδ, 8 nM; at PI3Kγ (setting [1]) it was 2500 nM.
For `Cc1c(C(N)=O)cccc1-n1c([C@H](C)Nc2nc(N)nc(N)c2C#N)nc2cccc(Cl)c2c1=O` (single isomer, unassigned) [Compound 5], the half-maximal inhibitory concentration (IC50) was 526 nM at PI3Kβ, 2 nM on PI3Kδ and 81 nM at PI3Kγ (setting [1]).
Regarding `Cc1c(C(N)=O)cccc1-n1c([C@H](C)Nc2nc(N)nc(N)c2C#N)nc2cccc(Cl)c2c1=O` (single isomer, unassigned) [Compound 6], the IC50 turned out to be 32 nM on PI3Kβ, 4 nM at PI3Kδ and 620 nM on PI3Kγ (setting [1]).
In the case of `Cc1nc(N)nc(N[C@H](c2nc3c(Cl)ccc(Cl)c3c(=O)n2-c2cccc(C(N)=O)c2)C2CC2)c1C#N` [Compound 13, (S)-3-(2-(((2-amino-5-cyano-6-methylpyrimidin-4-yl)amino)(cyclopropyl)methyl)-5,8-dichloro-4-oxoquinazolin-3(4H)-yl)benzamide], the IC50 at PI3Kβ worked out at 7 nM; on PI3Kγ (setting [1]) it was 510 nM.
As to `CCC[C@H](Nc1nc(N)nc(N)c1C#N)c1nc2c(Cl)ccc(Cl)c2c(=O)n1-c1cccc(C(N)=O)c1` [Compound 20, (S)-3-(5,8-dichloro-2-(1-((2,6-diamino-5-cyanopyrimidin-4-yl)amino)butyl)-4-oxoquinazolin-3(4H)-yl)benzamide], the concentration for half-maximal inhibition (IC50) stood at 11 nM on PI3Kβ and 1400 nM on PI3Kγ (setting [1]).
As to `N#Cc1c(N)nc(N)nc1N[C@H](c1nc2c(Cl)cc(F)cc2c(=O)n1-c1cccc(C(N)=O)c1)C1CC1` [Compound 27, (S)-3-(8-chloro-2-(cyclopropyl((2,6-diamino-5-cyanopyrimidin-4-yl)amino)methyl)-6-fluoro-4-oxoquinazolin-3(4H)-yl)benzamide], the half-inhibitory concentration (IC50) on PI3Kβ came out at 5 nM; at PI3Kδ it was 2 nM.
Consider `C[C@H](Nc1nc(N)nc(N)c1C#N)c1nc2c(Cl)cc(F)cc2c(=O)n1-c1cccc(C(N)=O)c1` [Compound 29], for which the results for the IC50 on PI3Kβ and on PI3Kγ (setting [1]) were 8 nM and 440 nM, respectively.
Consider `CCNC(=O)Nc1cccc(-n2c([C@@H](Nc3ncnc(N)c3C#N)[C@@H](C)CC)nc3cccc(Cl)c3c2=O)c1` [Compound 42, 1-(3-(2-((1S,2S)-1-((6-amino-5-cyanopyrimidin-4-yl)amino)-2-methylbutyl)-5-chloro-4-oxoquinazolin-3(4H)-yl)phenyl)-3-ethylurea], for which the IC50 on PI3Kβ was 170 nM; on PI3Kγ (setting [1]), greater than 10000 nM.
The corresponding values for `CCNC(=O)Nc1cccc(-n2c([C@@H](C)Nc3ncnc(N)c3C#N)nc3cccc(Cl)c3c2=O)c1` [Compound 44, (R)-1-(3-(2-(1-((6-amino-5-cyanopyrimidin-4-yl)amino)ethyl)-5-chloro-4-oxoquinazolin-3(4H)-yl)phenyl)-3-ethylurea] are 320 nM and greater than 10000 nM.
Regarding `CCNC(=O)Nc1cccc(-n2c([C@H](C)Nc3ncnc(N)c3C#N)nc3cccc(C(F)(F)F)c3c2=O)c1` [Compound 51, (S)-1-(3-(2-(1-((6-amino-5-cyanopyrimidin-4-yl)amino)ethyl)-4-oxo-5-(trifluoromethyl)quinazolin-3(4H)-yl)phenyl)-3-ethylurea], at PI3Kβ, the IC50 was 67 nM.
Take `CCNC(=O)Nc1cccc(-n2c([C@H](C)Nc3ncnc4[nH]cnc34)nc3c(F)ccc(Cl)c3c2=O)c1` [Compound 63, (S)-1-(3-(2-(1-((9H-purin-6-yl)amino)ethyl)-5-chloro-8-fluoro-4-oxoquinazolin-3(4H)-yl)phenyl)-3-ethylurea]: the IC50 at PI3Kβ and on PI3Kδ was 29 nM each time.
For `CCNC(=O)Nc1cccc(-n2c([C@H](C)Nc3ncnn4ccnc34)nc3cccc(Cl)c3c2=O)c1` [Compound 71, (S)-1-(3-(5-chloro-2-(1-(imidazo[2,1-f][1,2,4]triazin-4-ylamino)ethyl)-4-oxoquinazolin-3(4H)-yl)phenyl)-3-ethylurea], the IC50 came out at 29 nM on PI3Kβ and 2000 nM on PI3Kγ (setting [1]).
Regarding `C[C@H](Nc1ncnc(N)c1C#N)c1nc2cccc(Cl)c2c(=O)n1-c1cccc(NC(=O)Nc2cc(C(C)(C)C)on2)c1` [Compound 74, (S)-1-(3-(2-(1-((6-amino-5-cyanopyrimidin-4-yl)amino)ethyl)-5 chloro-4-oxoquinazolin-3(4H)-yl)phenyl)-3-(5-(tert-butyl)isoxazol-3-yl)urea], the IC50 on PI3Kβ was determined as 11 nM; on PI3Kδ, 3 nM.
In the case of `CCNC(=O)Nc1cccc(-n2c([C@H](C)Nc3ncnc(N)c3C#N)nc3cccc(Cl)c3c2=O)c1` [Compound 90, (S)-1-(3-(2-(1-((6-amino-5-cyanopyrimidin-4-yl)amino)ethyl)-5-chloro-4-oxoquinazolin-3(4H)-yl)phenyl)-3-ethylurea], the half-inhibitory concentration (IC50) at PI3Kβ came out at 5 nM; at PI3Kγ (setting [1]), 3400 nM.
Take `C[C@H](Nc1ncnc(N)c1C#N)c1nc2cccc(Cl)c2c(=O)n1-c1cccc(NC(=O)Nc2c(Cl)cccc2Cl)c1` [Compound 103, (S)-1-(3-(2-(1-((6-amino-5-cyanopyrimidin-4-yl)amino)ethyl)-5-chloro-4-oxoquinazolin-3(4H)-yl)phenyl)-3-(2,6-dichlorophenyl)urea]: the IC50 came out at 2 nM on PI3Kβ and 7 nM on PI3Kδ.
For `C[C@H](Nc1ncnc(N)c1C#N)c1nc2cccc(Cl)c2c(=O)n1-c1cccc(NC(=O)Nc2ccc(F)cc2F)c1` [Compound 105, (S)-1-(3-(2-(1-((6-amino-5-cyanopyrimidin-4-yl)amino)ethyl)-5-chloro-4-oxoquinazolin-3(4H)-yl)phenyl)-3-(2,4-difluorophenyl)urea], the IC50 was 3 nM at PI3Kβ and 800 nM at PI3Kγ (setting [1]).
With `N#Cc1c(N)ncnc1N[C@@H](COCc1ccccc1)c1nc2cccc(Cl)c2c(=O)n1-c1cccc(NC(=O)NCCCO)c1` [Compound 130, (R)-1-(3-(2-(1-((6-amino-5-cyanopyrimidin-4-yl)amino)-2-(benzyloxy)ethyl)-5-chloro-4-oxoquinazolin-3(4H)-yl)phenyl)-3-(3-hydroxypropyl)urea], the IC50 at PI3Kβ is 24 nM; at PI3Kγ, greater than 10000 nM.
`CCNC(=O)Nc1cccc(-n2c([C@H](COCc3ccccc3)Nc3ncnc4[nH]cnc34)nc3cccc(Cl)c3c2=O)c1` [Compound 133, (R)-1-(3-(2-(1-((9H-purin-6-yl)amino)-2-(benzyloxy)ethyl)-5-chloro-4-oxoquinazolin-3(4H)-yl)phenyl)-3-ethylurea]: the results for the IC50 on PI3Kβ and at PI3Kγ (setting [1]) were 50 nM and 10000 nM, respectively.
As for `C[C@H](Nc1ncnc2[nH]cnc12)c1nc2cccc(Cl)c2c(=O)n1-c1cccc(NC(=O)Nc2ccccc2S(C)(=O)=O)c1` [Compound 145, (S)-1-(3-(2-(1-((9H-purin-6-yl)amino)ethyl)-5-chloro-4-oxoquinazolin-3(4H)-yl)phenyl)-3-(2-(methylsulfonyl)phenyl)urea], the figures for the IC50 on PI3Kβ and on PI3Kδ were 30 nM and 8 nM, respectively.
On to `COCCNC(=O)Nc1cccc(-n2c(C(C)Oc3ncnc4scnc34)nc3cccc(Cl)c3c2=O)c1` (stereo not shown) [Compound 149, 1-(3-(5-chloro-4-oxo-2-(1-(thiazolo[5,4-d]pyrimidin-7-yloxy)ethyl)quinazolin-3(4H)-yl)phenyl)-3-(2-methoxyethyl)urea], for which the IC50 on PI3Kβ was found to be 60 nM; at PI3Kγ (setting [1]), 3500 nM.
Take `C[C@H](Nc1nc(N)nc(N)c1C#N)c1nc2cccc(Cl)c2c(=O)n1-c1ccccc1` [Compound X, (S)-2,4-diamino-6-((1-(5-chloro-4-oxo-3-phenyl-3,4-dihydroquinazolin-2-yl)ethyl)amino)pyrimidine-5-carbonitrile, reference compound]: the PI3Kγ/PI3Kβ ratio is 0.6 on PI3Kβ and “less than 1” on PI3Kβ (listed as (S)-2,4-diamino-6-(1-(5-chloro-4-oxo-3-phenyl-3,4-dihydroquinazolin-2-yl)ethyl)).

The IC50 is the midpoint of a concentration-inhibition curve.
